Results on six compounds are retold here after patent publication US10202349B2, “Asymmetric bis-acridines with antitumour activity and their uses” (POLITECHNIKA GDAŃSKA, priority 2015, dated 2019).

For one experiment, the system named is HCT 116. In words: Anti-neoplasmic activity against xenograft in hairless mice. The class given is in vivo. Put shortly: (§1)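 Human tumour cells (5×10^6 per mouse) implanted subcutaneously in 5-week female nude mice; randomised at ~100–200 mm^3 tumour volume. Dosing i.v. or i.p., twice weekly (thrice for fast growers) over 4 weeks, three dose levels. Growth inhibition computed from volume change versus controls.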

A further experiment has as its system PANC 1. Described as above. The class given is in vivo. Summed up: (§2)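 Female 5-week nude mice (Crl:Nu-Foxn1nu) implanted s.c. with 5×10^6 tumour cells, dosed from ~100–200 mm^3 tumours at three doses, i.v. (some series i.p.) twice weekly (thrice for fast tumours) for 4 weeks. Calipered volumes gave TGI% = 100 − (ΔVT/ΔVC × 100), scored after dosing ended.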
The test system of another experiment is PC 3. Described as above. The class given is in vivo. Conditions: day 39. Summed up:
(§3)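 s.c. xenograft, 5×10^6 cells/mouse, female hairless mice, 5 wk. Start Rx at ~100 or 200 mm^3; 6–8 per test group. i.v. (or i.p.) 2×/wk ×4 wk, 3 doses. Readout: tumour volume, TGI %.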

The test system of the next experiment is H 460. The experiment is described as above. Conditions: series 6, i.v., single 8 mg/kg, total 48 mg/kg, day 23. The class given is in vivo. Put shortly: as §2
The next experiment has as its system DU 145. Described as above. The class given is in vivo. Summed up:
as §3

Another experiment relates to MDA-MB-231. In words: Cytotoxic activity in vitro, SRB. The class given is cell-based, human. Put shortly: (§4)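 SRB read-out, NCI method; human cancer lines; EC50 = conc. giving 50% growth inhibition vs control.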
A further experiment has as its system AsPC-1. In words: Cytotoxic activity in vitro, SRB. The class given is cell-based, human. Summed up:
as §4

In a further experiment the test system is MiaPaCa-2. Briefly: Cytotoxic activity in vitro, SRB. Type of experiment: cell-based, human. Summed up: as §4
The test system of the next experiment is DU-145. In words: Cytotoxic activity in vitro, SRB. The class given is cell-based, human. Summed up: as §4
Another experiment relates to PANC-1. In words: Cytotoxic activity in vitro, SRB. The class given is cell-based, human. Summed up: as §4
A further experiment relates to MCF-7. In words: Cytotoxic activity in vitro, SRB. The class given is cell-based, human. Put shortly: as §4
In a further experiment the test system is H-460. Briefly: Cytotoxic activity in vitro, SRB. The class given is cell-based, human. Put shortly:
as §4

Another experiment concerns UM-UC-3. In words: Cytotoxic activity in vitro, SRB. Type of experiment: cell-based, human. Put shortly:
as §4

The subject of another experiment is PC-3. Briefly: Cytotoxic activity in vitro, SRB. The class given is cell-based, human. Put shortly: as §4
The next experiment relates to HCT-116. In words: Cytotoxic activity in vitro, SRB. Type of experiment: cell-based, human. Summed up: as §4
The next experiment relates to AsPC 1. In words: Anti-neoplasmic activity against xenograft in hairless mice. The class given is in vivo. Put shortly:
as §1

The subject of another experiment is MDA MB 231. Described as above. Type of experiment: in vivo. Summed up: as §1
In a further experiment the test system is Mia Pa Ca 2. Described as above. Conditions: series 28, i.v., single 6 mg/kg, total 12 mg/kg, day 15, *at least half of animals did not survive. The class given is in vivo. Put shortly:
as §1

For a further experiment, the system named is BXPC 3. The description is as above. Type of experiment: in vivo. Summed up: as §1
Another experiment relates to Capan-2. In words: Cytotoxic activity in vitro, SRB. Type of experiment: cell-based, human. Summed up:
as §4

For a further experiment, the system named is BxPC-3. Briefly: Cytotoxic activity in vitro, SRB. The class given is cell-based, human. Summed up:
as §4

The subject of a further experiment is HT-29. In words: Cytotoxic activity in vitro, SRB. The class given is cell-based, human. Summed up:
as §4

`O=c1c2ccccc2[nH]c2c([N+](=O)[O-])ccc(NCCCN3CCN(CCCNc4c5ccccc5nc5cccc([N+](=O)[O-])c45)CC3)c12` [C-2031, 1-[3-(4-nitro-9(10H)-acridono-1-yl)aminopropyl]-4-[3′-(1′-nitroacridin-1-yl)-aminopropyl]piperazine]: the “TGI [%] [100 − (ΔVT/ΔVC × 100]” value in the experiment with HCT 116 (series 8, i.v., single 6 mg/kg, total 18 mg/kg, day 14, *at least half of animals did not survive) is on record as 52* %; in the experiment with HCT 116 (series 9, i.v., single 3 mg/kg, total 24 mg/kg, day 30) it was 34%; in the experiment on PANC 1 (series 10, i.v., single 3 mg/kg, total 30 mg/kg, day 45), 72%; with PANC 1 (series 14, i.v., single 1 mg/kg, total 10 mg/kg, day 37), 27%; in the experiment on PC 3 (series 15, i.v., single 1 mg/kg, total 8 mg/kg), 30%; in the experiment on H 460 it was 60%. The “TGI [%] [100 − (ΔVT/ΔVC × 100]” value in the experiment on DU 145 (series 13, i.v., single 4 mg/kg, total 32 mg/kg, day 35) was found to be 77%; with DU 145 (series 18, i.p., single 1 mg/kg, total 8 mg/kg, day 64), 81%. Moreover, the concentration giving a half-maximal response (EC50) (as a rule, the concentration at which the effect is half-maximal) in the experiment on MDA-MB-231 came out at 28 nM; with AsPC-1, 78 nM; in the experiment on MiaPaCa-2 it was 28 nM; in the experiment with DU-145, 11 nM; in the experiment with PANC-1 it was 56 nM; with MCF-7, 77 nM. Further, the EC50 in the experiment on H-460 was 9 nM; with UM-UC-3, 17 nM; with PC-3 it was 26 nM; in the experiment on HCT-116, 20 nM.

Turning to `O=c1c2ccccc2n2cnc3ccc(NCCCN4CCN(CCCNc5c6ccccc6nc6cccc([N+](=O)[O-])c56)CC4)c1c32` [C-2041, 1-[3-(imidazo[4,5,1-de]-acridin-6-on-5-yl)aminopropyl]-4-[3′-(1′-nitroacridin-1-yl)-aminopropyl]piperazine], the “TGI [%] [100 − (ΔVT/ΔVC × 100]” value was 29% with AsPC 1 (series 23, i.p., single 2 mg/kg, total 16 mg/kg, day 39); 53% in the experiment on MDA MB 231 (series 34, i.v., single 4 mg/kg, total 32 mg/kg, day 32); 38* % in the experiment on Mia Pa Ca 2; 81% in the experiment on BXPC 3 (series 21, i.v., single 2 mg/kg, total 16 mg/kg, day 44); 48% in the experiment on BXPC 3 (series 33, i.v., single 2 mg/kg, total 16 mg/kg, day 32); 76% in the experiment with PANC 1 (series 17, i.v., single 2 mg/kg, total 16 mg/kg, day 60). The “TGI [%] [100 − (ΔVT/ΔVC × 100]” value was determined as 83% in the experiment with PANC 1 (series 27, i.v., single 2 mg/kg, total 16 mg/kg, day 33); 82% in the experiment with PANC 1 (series 32, i.v., single 1 mg/kg, total 16 mg/kg, day 33); 61% in the experiment with DU 145 (series 18, i.v., single 2 mg/kg, total 16 mg/kg, day 33). The 50% effective concentration (EC50) is 21 nM in the experiment on MDA-MB-231; 69 nM with AsPC-1; 32 nM in the experiment on Capan-2; 39 nM with MiaPaCa-2; 22 nM in the experiment on DU-145; 24 nM with PANC-1. Further, the EC50 was determined as 82 nM in the experiment on MCF-7, 54 nM with BxPC-3 and 25 nM with HCT-116.

Regarding `Cc1ccc([N+](=O)[O-])c2c(NCCCN3CCN(CCCNc4ccc5ncn6c7ccc(O)cc7c(=O)c4c56)CC3)c3ccccc3nc12` [C-2025, 1-[3-(8-hydroxy-imidazo[4,5,1-de]-acridin-6-on-5-yl)aminopropyl]-4-[3′-(4′-methyl-1′-nitroacridin-1-yl)-aminopropyl]piperazine], the “TGI [%] [100 − (ΔVT/ΔVC × 100]” value is 12% in the experiment with MDA MB 231 (series 19, i.v., single 5 mg/kg, total 40 mg/kg, day 39); 4% in the experiment with HCT 116 (series 7, i.v., single 20 mg/kg, total 120 mg/kg, day 15); 61* % in the experiment with PANC 1 (series 20, i.v., single 20 mg/kg, total 160 mg/kg, day 26, *at least half of animals did not survive). In addition, the concentration for a half-maximal effect (EC50) in the experiment with MDA-MB-231 came out at 17 nM; in the experiment with AsPC-1 it was 343 nM; in the experiment with Capan-2, 68 nM; in the experiment on MiaPaCa-2, 38 nM; in the experiment on HT-29 it was 237 nM; in the experiment with DU-145, 67 nM. Further, the EC50 is 42 nM in the experiment on PANC-1; 244 nM with MCF-7; 354 nM in the experiment on BxPC-3; 74 nM in the experiment with H-460; 35 nM with UM-UC-3; 130 nM in the experiment with PC-3. In the experiment on HCT-116, this compound yielded an EC50 of 51 nM.

As for `Cc1ccc([N+](=O)[O-])c2c(NCCCN(C)CCCNc3ccc4ncn5c6ccccc6c(=O)c3c45)c3ccccc3nc12` [C-2053, 9-{N-[(imidazo[4,5,1-de]-acridin-6-on-5-yl)aminopropyl]-N-methylaminopropylamino}-4′-methyl-1′-nitroacridine], the “TGI [%] [100 − (ΔVT/ΔVC × 100]” value in the experiment on MDA MB 231 (series 34, i.v., single 15 mg/kg, total 120 mg/kg, day 32) was 62%; in the experiment on BXPC 3 (series 25, i.v., single 20 mg/kg, total 160 mg/kg, day 36), 84%; with BXPC 3 (series 33, i.v., single 20 mg/kg, total 160 mg/kg, day 32, *at least half of animals did not survive) it was 47* %; with PANC 1 (series 24, i.v., single 15 mg/kg, total 120 mg/kg, day 37), 64%; in the experiment with PANC 1 (series 26, i.v., single 20 mg/kg, total 160 mg/kg, day 56), 69%. In addition, the EC50 in the experiment with AsPC-1 is 176 nM; with MiaPaCa-2 it was 87 nM; with DU-145, 65 nM; in the experiment on PANC-1 it was 98 nM; in the experiment on BxPC-3 it was 224 nM; in the experiment with HCT-116, 65 nM.

For `COc1ccc2c(c1)c(=O)c1c(NCCCN3CCN(CCCNc4c5ccccc5nc5cccc([N+](=O)[O-])c45)CC3)ccc3ncn2c31` [C-2049, 1-[3-(8-methoxy-imidazo[4,5,1-de]-acridin-6-on-5-yl)aminopropyl]-4-[3′-(1′-nitroacridin-1-yl)-aminopropyl]piperazine], the “TGI [%] [100 − (ΔVT/ΔVC × 100]” value is given as 32* % in the experiment on AsPC 1 (series 23, i.v., single 6 mg/kg, total 48 mg/kg, day 36, *at least half of animals did not survive); 63% in the experiment with BXPC 3 (series 21, i.v., single 6 mg/kg, total 40 mg/kg, day 34); 63% with PANC 1 (series 20, i.v., single 6 mg/kg, total 48 mg/kg, day 32); 80% in the experiment with PANC 1 (series 27, i.v, single 2 mg/kg, total 16 mg/kg, day 47). In addition, the EC50 with MDA-MB-231 worked out at 38 nM; in the experiment with AsPC-1 it was 122 nM; with Capan-2 it was 27 nM; in the experiment with MiaPaCa-2, 36 nM; with DU-145 it was 21 nM; with PANC-1, 40 nM. Besides, the values for the 50% effective concentration (EC50) in the experiment with BxPC-3 and in the experiment with HCT-116 were 75 nM and 28 nM, respectively.

For the compound `CN(CCCNc1c2ccccc2nc2cccc([N+](=O)[O-])c12)CCCNc1ccc([N+](=O)[O-])c2[nH]c3ccc(O)cc3c(=O)c12` [C-1906, 9-{N-[(7-hydroxy-4-nitro-9(10H)acridono-1-yl)aminopropyl]-N-methylaminopropylamino}-1′-nitroacridone], the “TGI [%] [100 − (ΔVT/ΔVC × 100]” value with HCT 116 (series 9, i.v., single 1 mg/kg, total 5 mg/kg, day 16, *at least half of animals did not survive) was 32* %; in the experiment with PC 3 (series 15, i.p., single 2 mg/kg, total 12 mg/kg), 52%; in the experiment on DU 145 (series 1, i.p., single 2 mg/kg, total 6 mg/kg, day 35, *at least half of animals did not survive), 60* %. The concentration for a half-maximal effect (EC50) in the experiment with MDA-MB-231 amounted to 20 nM; in the experiment with AsPC-1 it was 135 nM; in the experiment with MiaPaCa-2 it was 24 nM; with HT-29, 22 nM; with DU-145, 43 nM; with PANC-1, 32 nM. Also, the concentration for a half-maximal effect (EC50) worked out at 74 nM in the experiment with MCF-7; 14 nM in the experiment with H-460; 14 nM with UM-UC-3; 52 nM in the experiment with PC-3; 15 nM in the experiment on HCT-116.
